Experimental data as given in patent US20210169690A1, “Self-Retaining Implantable Drug Delivery Device” (GoldenBiotech, LLC, priority 2019, published 2021).

Legend:
Assay type in all cases: physicochemical
[1] = In vitro drug release from silicone polymer matrix test samples in PBS pH 7.4 at 37° C., RPHPLC; details: 10% Travoprost matrix plug, PARYLENE about 0.68 μm, two 18G depot channels
Method: To test the controlled release properties of the disclosed drug-loaded silicone polymer matrices, the effects of a coating were examined. In these experiments, test samples were made as described in Example 1 to produce thin-disc-shaped drug-loaded polymer matrix. From this material, test samples were prepared by 1) cutting out rectangular polygons of about 3 mm length, about 1 mm width and about 1 mm height were cut from polymerized drug-loaded material; or 2) cutting out cylindrical plugs of about 3 mm length and having a diameter of about 0.5 mm to about 1 mm. The weight of the test samples were in the range about 0.1 mg to about 4 mg.
Certain of these cut test samples were then coated using one of three procedures. Cut test samples were coated with a polymer like poly(p-xylylene) (PARYLENE) to a thickness of about 0.10 μm to about 0.95 μm using a vapor phase deposition procedure. Similarly, cut test samples were coated a metal like titanium to a thickness of about 0.10 μm to about 0.95 μm using a vapor phase deposition procedure. Alternatively, cut test samples were physically wrapped with a tape like polytetrafluoroethylene tape and sealed using cyanoacrylate adhesive.
The presence of opening in a coated test sample was also examined. In these experiments, coated test samples were punctured to produce opening through the coating layer. From one to four opening were made using the tip of an 18G, 23G, 27G or 31G needle. Two types of opening were produced 1) surface pores which created openings only through the coating layer but left the polymer matrix intact; and 2) depot channels which created a tunnel through the entire coated test sample from one end to the other end.
To examine the drug release properties of a test sample, each sample was placed in 2 mL Eppendorf tube containing 1.5 mL of Phosphate Buffered Saline, pH 7.4 (PBS). These tubes were slowly rocked at 37° C. in an incubator. At given time points the PBS was completely removed from the tube and refilled with fresh PBS. An aliquot of the removed PBS was then analyzed by reversed phase HPLC (RPHPLC) to determine the amount of drug released from the test sample during the incubation period. In these experiments, a 10 μL injection of the test sample aliquot was run on an Agilent 1260 Infinity in a reverse phase isocratic mode using UV detection at 210 nm. The column was a Hypersil GOLD Phenyl column, (Dim. (mm) 250×4.6) and the mobile phase was a 1:1 mixture of acetonitrile to aqueous buffer (comprising HPLC grade water mixed with 5 mM ammonium acetate and 0.02% formic acid). The flow rate was 1.2 mL/min and column temperature was 22° C. Peak detection and quantitation was determined by establishing a calibration curve using known amounts of each drug tested and the amount of drug present in the test sample aliquot interpolated from this calibration curve using ChemStation software.

[2] = Higuchi equation analysis of drug release data
Method: In order to ascertain whether the mechanism of drug release was based on diffusion, data obtained from various coated silicone polymer matrices were analyzed using the Higuchi equation. This analysis determined the linearity between the cumulative amount of drug released and the square root of time (SQRT). […] As exemplified FIG. 10, data is plotted as the square root of time taken on the x-axis and the cumulative percentage of drug release on the y-axis.

[3] = Korsmeyer-Peppas analysis of drug release data
Method: To confirm the results obtained based on the Higuchi equation analysis, the data above was also analyzed using the Korsmeyer-Peppas plot, which evaluates the mechanism of drug release by plotting the log of percent drug released over the log time in hours. If n equals 0.45, then Fickian diffusion is indicated for a cylinder (0.42 for cylinder of low aspect ratio). […] As exemplified FIG. 11, data is plotted as the log of cumulative percent drug released on the y-axis and the log time in hours on the x-axis.

[4] = Chemical stability of prostaglandin analogues in PBS, RPHPLC; details: PBS at pH 4, 7 and 10; 4° C., 33° C. and 50° C.
Method: The chemical stability of prostaglandin analogues was also examined. In these experiments, a prostaglandin analogue was incubated in phospho-buffered saline (PBS) at pH 4, 7 and 10 and at 4° C., 33° C. and 50° C. representing long term storage, eye temperature and accelerate temperature conditions respectively. Analyses were performed by RPHPLC as described in Example 2, noting any hydrolysis products formed. […] This stability is most likely due to the amide linkage in Bimatoprost which is much more hydrolytically stable than the ester linkage in Latanoprost and Travoprost.

[5] = Release from post-loaded section of the drug delivery device (Example 5)
Method: A central section of a self-retaining implantable drug delivery device disclosed herein was loaded with Travoprost by cutting a 3 mm section of the device and then placed into 0.200 mL of hexanes for 3 hours. Following this period, the self-retaining implantable drug delivery device was placed immediately into 0.050 mL of a Travoprost stock solution 25 mg/mL in ethanol and allowed to stand overnight. The following day, this section was washed sequentially by dipping into a water bath, followed by a 10% acetonitrile bath. It was dried at 80 C and set to release the following day. The section was allowed to release over a period of 38 days. The loading was determined to be approximately 13 mcg. […] This release profile is predicted by the Higuchi mechanism. This type of loading procedure we term post loading. The loaded section is coated with a poly(p-xylylene) polymer and two tiny holes are place completely through the section. The section is then molded together with the two flanking sections of the stent to form the final product. The release from this modified stent follows a near zero order release in vitro and in vivo in preclinical animal models and clinical studies.

Daily Release Rate ([1]; day 1): 3.12 µg/day
Daily Release Rate ([1]; day 5): 2.21 µg/day
Daily Release Rate ([1]; day 13): 1.15 µg/day
Daily Release Rate ([1]; day 22): 1.29 µg/day
Daily Release Rate ([1]; day 26): 1.30 µg/day
Daily Release Rate ([1]; day 35): 1.16 µg/day
Daily Release Rate ([1]; day 43): 1.15 µg/day
Daily Release Rate ([1]; day 54): 1.35 µg/day
Daily Release Rate ([1]; day 63): 1.16 µg/day
Daily Release Rate ([1]; day 70): 1.20 µg/day
Daily Release Rate ([1]; day 83): 0.900 µg/day
Daily Release Rate ([1]; day 90): 0.882 µg/day
Daily Release Rate ([1]; day 97): 0.387 µg/day
Daily Release Rate ([1]; day 105): 0.891 µg/day
Daily Release Rate ([1]; day 111): 0.798 µg/day
Daily Release Rate ([1]; day 162): 0.557 µg/day
Average Linear Regression r^2 Value, Higuchi Equation Analysis ([2]; Drug Loading 2.5%): 0.976
Average Linear Regression r^2 Value, Higuchi Equation Analysis ([2]; Drug Loading 5%): 0.972
Average Linear Regression r^2 Value, Higuchi Equation Analysis ([2]; Drug Loading 10%): 0.941
Average n Values, Korsmeyer-Peppas Analysis ([3]; Drug Loading 2.5%): 0.543±
Average n Values, Korsmeyer-Peppas Analysis ([3]; Drug Loading 5%): 0.507±
Average n Values, Korsmeyer-Peppas Analysis ([3]; Drug Loading 10%): 0.453±
Average n Values, Korsmeyer-Peppas Analysis, Mean ([3]; Mean over drug loadings): 0.50 ± 0.09
chemical stability (hydrolysis products) [4]: excellent stability
loading ([5]; 3 mm device section post loaded from 25 mg/mL Travoprost in ethanol): approximately 13 mcg
release at 38 days ([5]; post-loaded uncoated 3 mm section): 99%
release profile ([5]; post-loaded uncoated 3 mm section, over 38 days): curvilinear/asymptotic profile
SMILES: CC(C)OC(=O)CCC/C=C\C[C@@H]1[C@@H](/C=C/[C@@H](O)COc2cccc(C(F)(F)F)c2)[C@H](O)C[C@@H]1O [Travoprost]
